For 39 compounds, IC50 results are on record in patent US6268391A, “Benzylidene-1,3-dihydro-indol-2-one derivatives a receptor tyrosine kinase inhibitors, particularly of Raf kinases” (Glaxo Wellcome Inc., priority 1997, dated 2001).

In this assay the target is T1, Human cRaf1 (Homo sapiens, UniProt P04049).
T1 construct: poly-histidine (C); made in house
Nature of the assay: Raf kinase assay (cRaf1 assay / Raf/MEK cascade assay). The class given is biochemical. The following applies: Table 3; read-out: Raf Kinase activity.

T1 sequence (P04049 whole entry): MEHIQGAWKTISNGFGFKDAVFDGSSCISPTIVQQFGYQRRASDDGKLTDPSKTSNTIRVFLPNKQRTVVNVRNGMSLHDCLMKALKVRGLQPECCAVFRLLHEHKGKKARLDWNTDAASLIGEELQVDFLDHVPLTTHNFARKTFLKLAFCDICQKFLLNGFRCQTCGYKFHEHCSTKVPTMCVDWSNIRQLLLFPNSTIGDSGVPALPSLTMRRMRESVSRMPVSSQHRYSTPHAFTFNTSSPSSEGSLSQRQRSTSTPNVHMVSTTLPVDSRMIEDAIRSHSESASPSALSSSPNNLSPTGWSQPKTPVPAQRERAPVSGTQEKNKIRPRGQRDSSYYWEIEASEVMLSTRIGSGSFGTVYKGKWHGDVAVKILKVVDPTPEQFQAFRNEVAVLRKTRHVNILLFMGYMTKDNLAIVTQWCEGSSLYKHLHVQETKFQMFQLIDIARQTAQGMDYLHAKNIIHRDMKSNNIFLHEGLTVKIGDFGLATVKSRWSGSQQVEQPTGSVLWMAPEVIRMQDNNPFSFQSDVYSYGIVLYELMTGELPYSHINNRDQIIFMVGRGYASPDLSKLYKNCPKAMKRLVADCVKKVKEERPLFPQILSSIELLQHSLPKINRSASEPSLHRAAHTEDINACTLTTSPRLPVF

`O=C1Nc2ccc(S(=O)(=O)N3CCCC3)cc2C1=Cc1cc(Cl)c(O)c(Cl)c1` [Example 100, 3-(3,5-Dichloro-4-hydroxy-benzylidene)-5-(pyrrolidine-1-sulfonyl)-1,3-dihydro-indol-2-one]: the IC50 is under 1 µM. Under `COc1cc(C=C2C(=O)Nc3ccccc32)cc([N+](=O)[O-])c1O` [Example 101, 3-(4-Hydroxy-3-methoxy-5-nitro-benzylidene)-1,3-dihydro-indol-2-one] stands 1 to 10 µM; under `COc1cc(C=C2C(=O)Nc3ccccc32)cc(I)c1O` [Example 102, 3-(4-Hydroxy-3-iodo-5-methoxy-benzylidene)-1,3-dihydro-indol-2-one], 1 to 10 µM.

`CC(=O)Oc1c(Br)cc(C=C2C(=O)Nc3ccc(Cl)cc32)cc1Br` [Example 103, 2,6-Dibromo-4-[(5-chloro-2-oxo-1,2-dihydro-3H-indol-3-ylidene)methyl]phenyl acetate]: the IC50 was 10 to 100 µM. Regarding `COc1cc(C=C2C(=O)Nc3ccc(I)cc32)cc([N+](=O)[O-])c1O` [Example 104, 3-(4-Hydroxy-3-methoxy-5-nitro-benzylidene)-5-iodo-1,3-dihydro-indol-2-one], the IC50 was under 1 µM.

As for `O=C1Nc2ccc([N+](=O)[O-])cc2C1=Cc1cc(O)c(O)c(Cl)c1` [Example 105, 3-(3-Chloro-4,5-dihydroxy-benzylidene)-5-nitro-1,3-dihydro-indol-2-one], the IC50 is under 1 µM.

Regarding `CC(C)N(C(=O)Oc1c(Br)cc(C=C2C(=O)Nc3ccc(Cl)cc32)cc1Br)C(C)C` [Example 106, 2,6-Dibromo-4-[(5-chloro-2-oxo-1,2-dihydro-3H-indol-3-ylidene)methyl]phenyl N,N-diisopropylcarbamate], the IC50 was in the range of 10 to 100 µM.

Turning to `CN(C)CC(=O)c1ccc2c(c1)C(=Cc1cc(Br)c(O)c(Br)c1)C(=O)N2` [Example 107, 3-(3,5-Dibromo-4-hydroxy-benzylidene)-5-(2-dimethylamino-acetyl)-1,3-dihydro-indol-2-one], the IC50 is under 1 µM. Under `CCN(CCO)CC(=O)c1ccc2c(c1)C(=Cc1cc(Br)c(O)c(Br)c1)C(=O)N2` [Example 108, 3-(3,5-Dibromo-4-hydroxy-benzylidene)-5-{2-[N-ethyl-N-(2-hydroxy-ethyl)-amino]-acetyl}-1,3-dihydro-indol-2-one] stands under 1 µM; under `O=C1Nc2c(F)cccc2C1=Cc1cc(Br)c(O)c(Br)c1` [Example 109, 3-(3,5-Dibromo-4-hydroxy-benzylidene)-7-fluoro-1,3-dihydro-indol-2-one], under 1 µM; under `CN1CCN(CC(=O)c2ccc3c(c2)C(=Cc2cc(Br)c(O)c(Br)c2)C(=O)N3)CC1` [Example 110, 3-(3,5-Dibromo-4-hydroxy-benzylidene)-5-[2-(4-methyl-piperazin-1-yl)-acetyl]-1,3-dihydro-indol-2-one], under 1 µM. Under `O=C1Nc2cc(-c3ccccc3)ccc2C1=Cc1cc(Br)c(O)c(Br)c1` [Example 112, 3-(3,5-Dibromo-4-hydroxy-benzylidene)-6-phenyl-1,3-dihydro-indol-2-one] stands 1 to 10 µM; under `CC(C)Oc1ccc2c(c1)NC(=O)C2=Cc1cc(Br)c(O)c(Br)c1` [Example 113, 3-(3,5-Dibromo-4-hydroxy-benzylidene)-6-isopropoxy-1,3-dihydro-indol-2-one], 1 to 10 µM.

With `O=C1Nc2ccc(C(=O)CCl)cc2C1=Cc1cc(I)c(O)c(I)c1` [Example 114, 5-(2-Chloro-acetyl)-3-(3,5-diiodo-4-hydroxy-benzylidene)-1,3-dihydro-indol-2-one], the IC50 is under 1 µM. For `CCN(CC)S(=O)(=O)c1ccc2c(c1)C(=Cc1cc(Cl)c(O)c(Cl)c1)C(=O)N2` [Example 115, 3-(3,5-Dichloro-4-hydroxy-benzylidene)-2-oxo-2,3-dihydro-1H-indol-5-sulfonic acid diethylamide] the value was under 1 µM; for `O=C1Nc2ccc(S(=O)(=O)N3CCOCC3)cc2C1=Cc1cc(Cl)c(O)c(Cl)c1` [Example 116, 3-(3,5-Dichloro-4-hydroxy-benzylidene)-5-(morpholine-4-sulfonyl)-1,3-dihydro-indol-2-one], under 1 µM; for `CC(=O)N1CCc2cc3c(cc21)C(=Cc1cc(Br)c(O)c(Br)c1)C(=O)N3` [Example 118, 5-Acetyl-3-(3,5-dibromo-4-hydroxy-benzylidene)-3,5,6,7-tetrahydro-1H-pyrrolo[2,3-f]indol-2-one], under 1 µM. Under `CCc1ccc2c(c1)C(=Cc1cc(Br)c(O)c(Br)c1)C(=O)N2` [Example 120, 3-(3,5-Dibromo-4-hydroxy-benzylidine)-5-ethyl-1,3-dihydro-indol-2-one] stands under 1 µM; under `O=C1Nc2cc(Br)ccc2C1=Cc1cc(Br)c(O)c(Br)c1` [Example 123, 6-Bromo-3-(3,5-dibromo-4-hydroxy-benzylidene)-1,3-dihydro-indol-2-one], under 1 µM.

Turning to `O=C1Nc2ccc(-c3csc(-c4ccccc4)n3)cc2C1=Cc1cc(Cl)c(O)c(Cl)c1` [Example 124, 3-(3,5-Dichloro-4-hydroxy-benzylidene)-5-(2-phenyl-thiazol-4-yl)-1,3-dihydro-indol-2-one], the IC50 was under 1 µM. Turning to `O=C1Nc2ccc(-c3csc(-c4ccccc4)n3)cc2C1=Cc1cc(Br)c(O)c(Br)c1` [Example 125, 3-(3,5-Dibromo-4-hydroxy-benzylidene)-5-(2-phenyl-thiazol-4-yl)-1,3-dihydro-indol-2-one], the IC50 was under 1 µM. Take `O=C1Nc2ccc(-c3csc(Nc4ccccc4)n3)cc2C1=Cc1cc(Br)c(O)c(Br)c1` [Example 126, 3-(3,5-Dibromo-4-hydroxy-benzylidene)-5-(2-phenylamino-thiazol-4-yl)-1,3-dihydro-indol-2-one]: the IC50 was under 1 µM. As for `O=C1Nc2ccc(-c3csc(Nc4ccccc4)n3)cc2C1=Cc1cc(Cl)c(O)c(Cl)c1` [Example 127, 3-(3,5-Dichloro-4-hydroxy-benzylidene)-5-(2-phenylamino-thiazol-4-yl)-1,3-dihydro-indol-2-one], the IC50 was under 1 µM.

Turning to `O=C1Nc2ccc(C3=NNC(=S)NC3)cc2C1=Cc1cc(Cl)c(O)c(Cl)c1` [Example 128, 3-(3,5-Dichloro-4-hydroxy-benzylidene)-5-(3-thioxo-2,3,4,5-tetrahydro-[1,2,4]-triazine-6-yl)-1,3-dihydro-indol-2-one], the IC50 was under 1 µM. Under `O=C1Nc2ccc(C3=NNC(=S)NC3)cc2C1=Cc1cc(Br)c(O)c(Br)c1` [Example 129, 3-(3,5-Dibromo-4-hydroxy-benzylidene)-5-(3-thioxo-2,3,4,5-tetrahydro-[1,2,4]-triazine-6-yl)-1,3-dihydro-indol-2-one] stands under 1 µM; under `O=C1Nc2ccc3[nH]nnc3c2C1=Cc1cc(Br)c(O)c(Br)c1` [Example 132, 8-(3,5-Dibromo-4-hydroxy-benzylidene)-6,8-dihydro-3H-1,2,3,6-tetraaza-as-indacen-7-one], under 1 µM. Under `Nc1nc(-c2ccc3c(c2)C(=Cc2cc(Cl)c(O)c(Cl)c2)C(=O)N3)cs1` [Example 134, 5-(2-Amino-thiazol-4-yl)-3-(3,5-dichloro-4-hydroxy-benzylidene)-1,3-dihydro-indol-2-one] stands under 1 µM. For `Nc1nc2ccc3c(c2s1)C(=Cc1cc(Br)c(O)c(Br)c1)C(=O)N3` [Example 135, 2-Amino-8-(3,5-dibromo-4-hydroxy-benzylidene)-6,8-dihydro-1-thia-3,6-diaza-as-indacen-7-one] the value was under 1 µM; for `CC(=O)Nc1nc(-c2ccc3c(c2)C(=Cc2cc(Br)c(O)c(Br)c2)C(=O)N3)cs1` [Example 136, 5-(N-Acetyl-2-amino-thiazol-4-yl)-3-(3,5-dibromo-4-hydroxy-benzylidene)-1,3-dihydro-indol-2-one], under 1 µM; for `NC(=O)c1ccc2c(c1)C(=Cc1cc(Br)c(O)c(Br)c1)C(=O)N2` [Example 137, 3-(3,5-Dibromo-4-hydroxy-benzylidene)-2-oxo-2,3-dihydro-1H-indol-5-carboxylic acid amide], under 1 µM.

In the case of `O=C1Nc2ccc(-c3cccnc3)cc2C1=Cc1cc(Br)c(O)c(Br)c1` [Example 138, 3-(3,5-Dibromo-4-hydroxy-benzylidene)-5-pyrid-3-yl-1,3-dihydro-indol-2-one], the IC50 is under 1 µM. For `O=C1Nc2ccc(-c3ccsc3)cc2C1=Cc1cc(Br)c(O)c(Br)c1` [Example 139, 3-(3,5-Dibromo-4-hydroxy-benzylidene)-5-thiophen-3-yl-1,3-dihydro-indol-2-one] the value was under 1 µM; for `CNc1nc(-c2ccc3c(c2)C(=Cc2cc(Br)c(O)c(Br)c2)C(=O)N3)cs1` [Example 140], under 1 µM; for `CNc1nc(-c2ccc3c(c2)C(=Cc2cc(Cl)c(O)c(Cl)c2)C(=O)N3)cs1` [Example 141], under 1 µM. For `O=C1Nc2ccc(-c3nnn[nH]3)cc2C1=Cc1cc(Br)c(O)c(Br)c1` [Example 142, 3-(3,5-Dibromo-4-hydroxy-benzylidene)-5-(1H-tetrazol-5-yl)-1,3-dihydro-indol-2-one] the value was under 1 µM; for `Cc1nc(-c2ccc3c(c2)C(=Cc2cc(Br)c(OC(=O)N(CCO)CCO)c(Br)c2)C(=O)N3)cs1` [Example 144, N[bis(2-Hydroxyethyl)]-carbamic acid 2,6 dibromo-4-[5-(2-methyl-thiazol-4-yl)-2-oxo-1,2-dihydro-indol-3-ylidenemethyl]-phenyl ester], 10 to 100 µM; for `Cc1nnc(-c2ccc3c(c2)C(=Cc2cc(Br)c(O)c(Br)c2)C(=O)N3)o1` [Example 145, 3-(3,5-Dibromo-4-hydroxy-benzylidene)-5-(5-methyl-[1,3,4]oxadiazol-2-yl)-1,3-dihydro-indol-2-one], under 1 µM.

Take `O=C(OCc1ccccc1)Oc1c(Br)cc(C=C2C(=O)Nc3ccc(Cl)cc32)cc1Br` [Example 146, Benzyl 2,6-dibromo-4-[(5-chloro-2-oxo-1,2-dihydro-3H-indol-3-ylidene)methyl]phenyl carbonate]: the IC50 was in the range of 10 to 100 µM.

Consider `CCOC(=O)Oc1c(Br)cc(C=C2C(=O)Nc3ccc(Cl)cc32)cc1Br` [Example 147, 2,6-Dibromo-4-[(5-chloro-2-oxo-1,2-dihydro-3H-indol-3-ylidene)methyl]phenyl ethyl carbonate], for which the IC50 is 10 to 100 µM.
